The values below come from patent US20110237686A1, “FORMULATIONS AND METHODS OF USE” (Cerulean Pharma Inc, priority 2010, published 2011).

Holding throughout (type): physicochemical
A short description of series [1]: Lyophilization using HP-β-CD, freezing with liquid nitrogen and vacuum at room temperature.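 Further: cyclodextrins or their derivatives tested as cryoprotectant during lyophilization of PEGylated nanoparticles, assessing particle size growth attributed to PEG crystallization.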 Particulars: PEGylated nanoparticles A, polymer 31.25 mg/mL, vacuum at room temperature.
Description: In this example, a new strategy of using cyclodextrins and their derivatives as a cryoprotectant was tested. […] A cryoprotectant is needed to lyophilize liquid formulation that contain PEGylated nanoparticles A (Entries #1 and #2).
Series [2] in a line: Lyophilization using other cyclodextrins. Particulars: for Dv90 / PDI / Zave / Filtration Potency Loss: post lyophilization. The method, then:
Other CDs were also evaluated at the similar weight ratio of cryoprotectant/nanoparticle.

A short description of series [3]: Lyophilization of stealth liposome (Doxil). Particulars: lipids 16 mg/mL, cryoprotectant 40 mg/mL (2.5:1 w/w lipid), HP-β-CD lyophilization cycle, post lyophilization.
Series [4] in a line: Cryoprotectant screen, sucrose lyophilization cycle. Particulars: PEGylated nanoparticles A; for Dv90 / PDI / Zave: reconstituted. The method, then: A cryoprotectant screen was performed as follows.
These conditions are shown below in Table 21.

The nature of series [5]: Simple lyophilization of PLGA7K-PVA-PEG2K-30 and PLGA7K-PVA-PEG5K-30 PEGylated nanoparticle formulations. Particulars: 2K PEG PLGA nanoparticles 20 mg/mL, cryoprotectant 20 mg/mL (1:1 w/w). The source says: The results are similar to that obtained for PEGylated nanoparticles A except for SB-β-CD. The result from SB-β-CD supported the H-bonding mechanism for cryoprotection of PEGylated PLGA nanoparticles since SB-β-CD has less hydroxyl groups than α-CD, γ-CD and HP-β-CD (about ⅓ of —OH groups of β-CD are substituted by sulfobutyl groups).

Where [6] appears, read: cryoprotectant 20 mg/mL (0.64:1 w/w).
[7] abbreviates: cryoprotectant 40 mg/mL (1.28:1 w/w).
The mark [8] stands for this setting: cryoprotectant 40 mg/mL (1.28:1 w/w), listed as HP-beta-CD.
Where [9] appears, read: cryoprotectant 60 mg/mL (1.92:1 w/w).
[10] abbreviates: cryoprotectant 80 mg/mL (2.56:1 w/w).
The mark [11] stands for this setting: PEGylated nanoparticles A, polymer 31.25 mg/mL, CD 40 mg/mL (1.28:1 w/w).
The mark [12] stands for this setting: polymer 31.25 mg/mL (Doce. 1.5), cryoprotectant 100 mg/mL (3.2:1 w/w).
Setting [13] is: polymer 31.25 mg/mL, cryoprotectant 30 mg/mL (0.96:1 w/w).
[14] abbreviates: polymer 10.42 mg/mL (Doce. 0.50), cryoprotectant 100 mg/mL (9.6:1 w/w).
Setting [15] is: polymer 20.83 mg/mL (Doce. 1.00), cryoprotectant 100 mg/mL (4.8:1 w/w).
Setting [16] is: polymer 26.05 mg/mL (Doce. 1.25), cryoprotectant 100 mg/mL (3.8:1 w/w).
[17] abbreviates: polymer 31.25 mg/mL, cryoprotectant 20 mg/mL (0.64:1 w/w).
The mark [18] stands for this setting: polymer 31.25 mg/mL, cryoprotectant 60 mg/mL (1.92:1 w/w).
Where [19] appears, read: polymer 31.25 mg/mL, cryoprotectant 200 mg/mL (6.4:1 w/w).
The mark [20] stands for this setting: polymer 31.25 mg/mL, cryoprotectant 300 mg/mL (9.6:1 w/w).
The mark [21] stands for this setting: cryoprotectant 15 mg/mL (0.48:1 w/w).
[22] abbreviates: SB-β-CD 40 mg/mL, polymer 28.87 mg/mL (Doce. 1.94), 1.39:1 w/w.
Setting [23] is: SB-β-CD 60 mg/mL, polymer 28.87 mg/mL (Doce. 1.94), 2.08:1 w/w.

Values joined by “and” are separate entries in the source; they are usually repeats but may differ in a detail not shown here. Identical values can stand only once.

On to “2-hydroxypropyl-β-cyclodextrin [HP-β-CD]”, for which the Dv90 in series [1] (setting [6]) was 121 nm; in series [1] (setting [8]) it was 118 nm and 119 nm; in series [1] (setting [9]), 119 nm; in series [1] (setting [10]), 119 nm; in series [2] (setting [11]), 119 nm; in series [3] it was 119 nm. In addition, the PDI was 0.095 in series [1] (setting [6]); 0.077 and 0.075 in series [1] (setting [8]); 0.089 in series [1] (setting [9]); 0.095 in series [1] (setting [10]); 0.075 in series [2] (setting [11]); 0.071 in series [3]. In addition, the “Reconstituted Solution appearance” value in series [1] (setting [6]) was “some”; in series [1] (setting [7]), “good”; in series [1] (setting [9]), “good”; in series [1] (setting [10]), “good”. The Zave in series [1] (setting [6]) was 90.93 nm; in series [1] (setting [8]), 89.43 nm and 90.66 nm; in series [1] (setting [9]), 89.84 nm; in series [1] (setting [10]), 90.60 nm; in series [2] (setting [11]), 90.66 nm; in series [3], 90.32 nm.
Regarding `OC[C@H]1O[C@@H](O[C@H]2[C@H](O)[C@@H](O)C(O)O[C@@H]2CO)[C@H](O)[C@@H](O)[C@H]1O` (stereo partly drawn) [Lactose, lactose], in series [4] (setting [12]), the “Lyophilized preparation Appearance” value was “some”, the “Recon. Solution Appearance” value is given as “cloudy”, the Dv90 was 178 nm and the PDI worked out at 0.352. For the same compound, the Zave in series [4] (setting [12]) was 183.2 nm.
As to `OC[C@@H](O)[C@@H](O)[C@H](O)[C@H](O)CO` [Mannitol, mannitol], in series [4] (setting [12]), the “Lyophilized preparation Appearance” value is on record as “some”, the “Recon. Solution Appearance” value is given as “cloudy”, the Dv90 was determined as 2540 nm and the PDI is 0.544. This compound showed a Zave in series [4] (setting [12]) of 472.7 nm. Further, in series [4] (setting [13]), the “Lyophilized preparation Appearance” value is recorded as “good”, the “Recon. Solution Appearance” value is given as “precipitation”, the Dv90 came out at 340 nm and the PDI turned out to be 0.638. In addition, the Zave in series [4] (setting [13]) is recorded as 499.2 nm. For the same compound, in series [5], the “outcome after lyophilization (in place of particle size)” value (“outcome after lyophilization” below) is listed as “Precipitated”.
Consider `OC[C@H]1O[C@H](O[C@H]2O[C@H](CO)[C@@H](O)[C@H](O)[C@H]2O)[C@H](O)[C@@H](O)[C@@H]1O` [Trehalose, trehalose], for which the “Lyophilized preparation Appearance” value in series [4] (setting [14]), in series [4] (setting [15]), in series [4] (setting [16]), in series [4] (setting [12]), in series [4] (setting [17]) and in series [4] (setting [18]) was “good” in each case. The “Lyophilized preparation Appearance” value in series [4] (setting [19]) and in series [4] (setting [20]) was “good” throughout. The “Recon. Solution Appearance” value in series [4] (setting [14]) is “slight”; in series [4] (setting [15]), “cloudy”; in series [4] (setting [16]) it was “cloudy”; in series [4] (setting [12]) it was “cloudy”; in series [4] (setting [17]), “precipitation”; in series [4] (setting [18]), “cloudy”. Besides, the “Recon. Solution Appearance” value in series [4] (setting [19]) and in series [4] (setting [20]) was “slight” in each case. Also, the Dv90 is 160 nm in series [4] (setting [14]); 189 nm in series [4] (setting [15]); 379 nm in series [4] (setting [16]); 286 nm in series [4] (setting [12]); 188 nm in series [4] (setting [17]); 169 nm in series [4] (setting [18]). In addition, the Dv90 came out at 186 nm in series [4] (setting [19]), 205 nm in series [4] (setting [20]) and 130 nm in series [1] (setting [7]). In addition, the PDI in series [4] (setting [14]) stood at 0.0166; in series [4] (setting [15]) it was 0.725; in series [4] (setting [16]) it was 0.372; in series [4] (setting [12]), 0.417; in series [4] (setting [17]), 0.381; in series [4] (setting [18]), 0.464. Further, the PDI in series [4] (setting [19]) was determined as 0.348; in series [4] (setting [20]), 0.325; in series [1] (setting [7]), 0.260. The Zave in series [4] (setting [14]) turned out to be 108.1 nm; in series [4] (setting [15]), 606.5 nm; in series [4] (setting [16]), 259.1 nm; in series [4] (setting [12]), 294.2 nm; in series [4] (setting [17]), 236.1 nm; in series [4] (setting [18]), 276.9 nm. In addition, the Zave in series [4] (setting [19]) worked out at 192.2 nm; in series [4] (setting [20]), 154.8 nm; in series [1] (setting [7]) it was 114.1 nm. Further, in series [1] (setting [7]), the “Reconstituted Solution appearance” value was “precipitation”. For the same compound, the “outcome after lyophilization” value in series [5] is listed as “Precipitated”.
For the compound `OC[C@H]1O[C@@H]2O[C@H]3[C@H](O)[C@@H](O)[C@@H](O[C@H]4[C@H](O)[C@@H](O)[C@@H](O[C@H]5[C@H](O)[C@@H](O)[C@@H](O[C@H]6[C@H](O)[C@@H](O)[C@@H](O[C@H]7[C@H](O)[C@@H](O)[C@@H](O[C@H]1[C@H](O)[C@H]2O)O[C@@H]7CO)O[C@@H]6CO)O[C@@H]5CO)O[C@@H]4CO)O[C@@H]3CO` [α-CD, α-cyclodextrin], in series [1] (setting [21]), the Dv90 amounted to 122 nm, the “Filtration Loss” value came to 8%, the PDI is reported as 0.088 and the “Reconstituted Solution appearance” value is given as “good”. The same compound registered a Zave in series [1] (setting [21]) of 92.05 nm. Further, in series [2] (setting [11]), the Dv90 was found to be 121 nm, the PDI amounted to 0.070 and the Zave was 92.06 nm. In series [5], this compound registered a Dv90 of 139 nm, a PDI of 0.087 and a Zave of 101.0 nm.
Turning to `OC[C@H]1O[C@@H]2O[C@H]3[C@H](O)[C@@H](O)[C@@H](O[C@H]4[C@H](O)[C@@H](O)[C@@H](O[C@H]5[C@H](O)[C@@H](O)[C@@H](O[C@H]6[C@H](O)[C@@H](O)[C@@H](O[C@H]7[C@H](O)[C@@H](O)[C@@H](O[C@H]8[C@H](O)[C@@H](O)[C@@H](O[C@H]1[C@H](O)[C@H]2O)O[C@@H]8CO)O[C@@H]7CO)O[C@@H]6CO)O[C@@H]5CO)O[C@@H]4CO)O[C@@H]3CO` [β-CD, β-cyclodextrin], in series [2] (CD 40 mg/mL), the “solubility of the lyoprotectant in the formulation” value is “Beta-CD is not soluble at this”.
Regarding `OC[C@H]1O[C@@H]2O[C@H]3[C@H](O)[C@@H](O)[C@@H](O[C@H]4[C@H](O)[C@@H](O)[C@@H](O[C@H]5[C@H](O)[C@@H](O)[C@@H](O[C@H]6[C@H](O)[C@@H](O)[C@@H](O[C@H]7[C@H](O)[C@@H](O)[C@@H](O[C@H]8[C@H](O)[C@@H](O)[C@@H](O[C@H]9[C@H](O)[C@@H](O)[C@@H](O[C@H]1[C@H](O)[C@H]2O)O[C@@H]9CO)O[C@@H]8CO)O[C@@H]7CO)O[C@@H]6CO)O[C@@H]5CO)O[C@@H]4CO)O[C@@H]3CO` [γ-CD, γ-cyclodextrin], in series [2] (setting [11]), the Dv90 was found to be 121 nm, the PDI was 0.097 and the Zave worked out at 91.06 nm. For the same compound, in series [5], the Dv90 worked out at 139 nm, the PDI worked out at 0.080 and the Zave is 101.8 nm.
With “β-cyclodextrin sulfobutylether [SB-β-CD]”, in series [2] (setting [22]), the Dv90 is reported as 149 nm, the “Filtration Potency Loss” value was 2% and the Zave came to 106.9 nm. In addition, in series [2] (setting [23]), the Dv90 is 151 nm, the “Filtration Potency Loss” value is 8% and the Zave amounted to 108.5 nm. In series [5], the “outcome after lyophilization” value is given as “Precipitated”.
